Assay results published in patent US12370143B2, “Compound or salt thereof and lipid particles” (FUJIFILM Corporation, priority 2018, dated 2025).

What was measured:
[1] = Particle size of nucleic acid lipid particles (FVII-siRNA); assay type: physicochemical
Protocol: The compounds described in Table 2, L-α-distearoylphosphatidylcholine (trade name: COATSOME® MC-8080; NOF corporation), cholesterol (trade name: Choesterol HP; NIPPON FINE CHEMICAL CO., LTD.), and 1,2-dimyristoyl-rac-glycero-3-(methylpolyoxyethylene 2000) (hereinafter, called DMG-PEG2000) (trade name: SUNBRIGHT® GM-020; NOF corporation) were dissolved in ethanol at a molar ratio of 50/10/38.5/1.5 such that the total lipid concentration became 20 mmol/L, thereby obtaining an oil phase.
An aqueous nucleic acid solution obtained by dissolving 5 mg of Luc2-siRNA having the sequence described in Biomacromolecules (2013) 14, p. 3905 in 1 mL of sterile water was diluted with 10 mmol/L acetate buffer having a pH 4 such that the nucleic acid concentration became 19.7 μmol/L, thereby obtaining a water phase. Then, the water phase and the oil phase were mixed together by a micromixer (see JP5288254B) using a syringe pump such that the volume ratio of water phase:oil phase became 3:1 (final ratio of siRNA/lipid=339 (mol/mol)), and the mixed solution was diluted 2× with PBS, thereby obtaining a dispersion liquid of nucleic acid lipid particles. The dispersion liquid was dialyzed (Slide-A-Lyzer G2, MWCO: 10 kD, Thermo Fisher Scientific) using a phosphate buffered saline such that ethanol was removed, thereby obtaining nucleic acid lipid particles.
The particle size of the nucleic acid lipid particles was measured by the same method as that in <Preparation of lipid particles>.
(§1) The Factor VII (FVII) protein was measured according to the method described in Nature Biotechnology (2010) 28, 172-176. C57BL6/J mice were randomly grouped (n=3). A dispersion liquid of nucleic acid lipid particles was prepared by the same method as that in <Preparation of nucleic acid lipid particles>, except that FVII-siRNA having the sequence described in Molecular Therapy (2009) 17, p. 878 was used instead of Luc-siRNA. The dispersion liquid was administered to the caudal vein of the mice at a dosage of 0.1 mg/kg. For comparison, PBS at the same volume was administered to the caudal vein of the mice. Twenty four hours after the administration, blood was collected from the caudal vena cava, thereby obtaining plasma. The amount of FVII protein was quantified using the obtained plasma and a Biophen FVII assay kit (Aniara).

[2] = Particle size of nucleic acid lipid particles (Luc2-siRNA); assay type: physicochemical; conditions: compound/DSPC/cholesterol/DMG-PEG2000 50/10/38.5/1.5
In short: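 Lipid particles formed from oil phase (test lipid/DSPC/cholesterol/DMG-PEG2000, 50/10/38.5/1.5 molar, 20 mmol/L total in ethanol) micromixed 1:3 with Luc2-siRNA in pH 4 acetate buffer (19.7 μmol/L); siRNA/lipid 339 mol/mol, PBS-diluted and dialyzed. Size measured on ELS-Z2 dynamic light scattering.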

[3] = Nucleic acid encapsulation rate of nucleic acid lipid particles (FVII-siRNA); assay type: physicochemical
Protocol: A 3 mol/L aqueous sodium acetate solution (30 μL) and 9 μL of glycogen were added to 60 μL of the lipid particles retaining nucleic acids, and then 1.5 mL of ethanol was added thereto such that only the nucleic acids were precipitated while the lipid was dissolved. Then, the supernatant was removed by centrifugation. After the precipitates were air-dried for 15 minutes or longer, water was added thereto such that the precipitates were redissolved, and the concentration thereof was measured using Nanodrop NF1000 (Thermo Fisher Scientific), thereby quantifying the total nucleic acid concentration.
The nucleic acid concentration was quantified using a Quant-iT RiboGreen RNA Assay Kit (Thermo Fisher Scientific) according to the protocol. First, a 20×TE buffer included in the above kit was diluted with water, thereby obtaining a 1×TE buffer. TE represents Tris/EDTA (ethylenediaminetetraacetic acid). In order to quantify only the nucleic acid in the outer water phase, the dispersion liquid of lipid particles retaining nucleic acids was diluted 10,000× with the 1×TE buffer.
The 10,000× diluted dispersion liquid of lipid particles (100 μL) was put in a 96-well plate, then 100 μL of a RiboGreen reagent (reagent included in the Quanti-iT Ribogreen RNA Assay Kit described above) diluted 2000× with the 1×TE buffer was added to a sample, and fluorescence (excitation wavelength: 485 nm, fluorescence wavelength: 535 nm) was measured using a plate reader Infinit EF200 (TECAN), thereby quantifying the nucleic acid concentration in the outer water phase.
By using the total nucleic acid concentration obtained through the above steps and the quantified nucleic acid concentration in the outer water phase, the nucleic acid encapsulation rate of the nucleic acid lipid particles was calculated according to the following Equation. Nucleic acid encapsulation rate (%)=(total nucleic acid concentration−nucleic acid concentration in outer water phase)/total nucleic acid concentration×100 The results are shown in Table 2.
as §1

[4] = system: DMS273 cells constantly expressing Luc; test: Target reporter protein (Luc) knockdown in cell, reporter protein assay; assay type: cell-based; conditions: Homo sapiens, DMS-273; Luc2-siRNA lipid particles using the compound; siRNA 0.1 to 100 nmol/L; concentration at which Luc expression is knocked down to 50%; read-out: IC50
In short: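 Nucleic acid lipid particles added at final 0.1 to 100 nmol/L to DMS273 human SCLC cells stably expressing Luc2, 24 hr exposure then 24 hr further culture after medium change. Luc quantified by Steady Glo luminescence after viable cell count; knockdown efficiency calculated and IC50 taken as concentration giving 50% Luc reduction.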

[5] = Encapsulation rate of siRNA in nucleic acid lipid particles (Luc2-siRNA); assay type: physicochemical; conditions: compound/DSPC/cholesterol/DMG-PEG2000 50/10/38.5/1.5
In short: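 Encapsulation rate was calculated as (total − outer-phase siRNA)/total ×100. Total siRNA was quantified spectrophotometrically after lipid-dissolving ethanol precipitation, and unencapsulated siRNA by RiboGreen in TE (ex 485/em 535 nm). The particles were test lipid/DSPC/cholesterol/DMG-PEG2000 at 50/10/38.5/1.5, formed by microfluidic mixing with Luc2-siRNA at pH 4 and dialyzed against PBS.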

[6] = system: Factor VII (FVII) protein; test: Measurement of Factor VII (FVII) protein in mouse plasma after FVII-siRNA lipid particles; assay type: in vivo, C57BL6/J mice; conditions: 0.1 mg/kg caudal vein, plasma 24 hours after administration, PBS group = 100%
Protocol: as §1
The FVII amount in the plasma sample of each individual in the PBS administration group was regarded as 100%, and the ratio of the FVII amount in the plasma sample of each individual to 100% was adopted as a measurement value.

SMILES | Particle size (nm) [1] | Particle size (nm) [2] | Nucleic acid encapsulation rate [3] | IC50 [4] | Nucleic acid encapsulation rate [5] | Relative amount of FVII protein (%) [6]
CCCCC/C=C\C/C=C\CCCCCCCCC(CCCCCCCC/C=C\C/C=C\CCCCC)OC(=O)OCCN(C)CCN(CC)CC [Example 23, 2-((2-(Diethylamino)ethyl)(methyl)amino)ethyl((6Z,9Z,28Z,31Z)-heptatriaconta-6,9,28,31-tetraen-19-yl)carbonate] | 75.4 nm | 69.2 nm | 57% | 0.039 µM | 85% | 39%
CCCCCCCCC(CCCCCC)COC(=O)CCCCCCCC(CCCCCC)OC(=O)OCCN(CCN(CC)CC)C(C)C (centres unmarked) [Example 117, 2-Hexyldecyl 3-ethyl-12-hexyl-6-isopropyl-10-oxo-9,11-dioxa-3,6-diazaicosan-20-oate] | 85.4 nm | 77.3 nm | 89% | – | 90% | 12%
CCCCCCCCCC(CCCCCCCCC)COC(=O)CCCC(CCCCCC)OC(=O)OCCN(CCN(CC)CC)C(C)C (centres unmarked) [Example 124, 2-Nonylundecyl 3-ethyl-12-hexyl-6-isopropyl-10-oxo-9,11-dioxa-3,6-diazahexadecan-16-oate] | 73.4 nm | 68.3 nm | 84% | – | 69% | 8%
CCCCCCCC(=O)OCCN(CCOC(=O)OC(CCCCCC)CCCCCCCCC(=O)OCCC(CCCCC)CCCCC)CCN(CC)CC (centres unmarked) [Example 125, 3-Pentyloctyl 3-ethyl-12-hexyl-6-(2-(octanoyloxy)ethyl)-10-oxo-9,11-dioxa-3,6-diazahenicosan-21-oate] | 77.8 nm | 73.8 nm | 80% | – | 76% | 5%
CCCCCCCCC(=O)OCCN(CCOC(=O)OC(CCCCCC)CCCCCCCCC(=O)OCC(CCCCC)CCCCC)CCN(CC)CC (centres unmarked) [Example 130, 2-Pentylheptyl 3-ethyl-12-hexyl-6-(2-(nonanoyloxy)ethyl)-10-oxo-9,11-dioxa-3,6-diazahenicosan-21-oate] | 74.1 nm | 64.9 nm | 68% | – | 66% | 9%
CCCCCCCC(CCCCCCC)COC(=O)CCCCCCCCC(CCCCCC)OC(=O)OCCN(CCN(CC)CC)C(C)C (centres unmarked) [Example 133, 2-Heptylnonyl 3-ethyl-12-hexyl-6-isopropyl-10-oxo-9,11-dioxa-3,6-diazahenicosan-21-oate] | 75.8 nm | 75.8 nm | 78% | – | 78% | 16%

The next lines start with results.

Particle size (nm) [1] | Particle size (nm) [2] | Nucleic acid encapsulation rate [3] | IC50 [4] | Nucleic acid encapsulation rate [5] | SMILES | Relative amount of FVII protein (%) [6]
66.2 nm | 62.0 nm | 67% | 0.041 µM | 88% | CCCCC/C=C\C/C=C\CCCCCCCCC(CCCCCCCC/C=C\C/C=C\CCCCC)OC(=O)OCCN(CC)CCN(C)C [Example 24, 2-((2-(Dimethylamino)ethyl)(ethyl)amino)ethyl((6Z,9Z,28Z,31Z)-heptatriaconta-6,9,28,31-tetraen-19-yl)carbonate] | 24%
73.6 nm | 69.8 nm | 88% | 0.024 µM | 78% | CCCCC/C=C\C/C=C\CCCCCCCCC(CCCCCCCC/C=C\C/C=C\CCCCC)OC(=O)OCCN(CC)CCN(CC)CC [Example 30, 2-((2-(Diethylamino)ethyl)(ethyl)amino)ethyl((6Z,9Z,28Z,31Z)-heptatriaconta-6,9,28,31-tetraen-19-yl)carbonate] | 5%
73.5 nm | 67.9 nm | 80% | 0.038 µM | 78% | CCCCC/C=C\C/C=C\CCCCCCCCC(CCCCCCCC/C=C\C/C=C\CCCCC)OC(=O)OCCN(CCC)CCN(C)C [Example 31, 2-((2-(Dimethylamino)ethyl)(propyl)amino)ethyl((6Z,9Z,28Z,31Z)-heptatriaconta-6,9,28,31-tetraen-19-yl)carbonate] | 14%
78.8 nm | 78.7 nm | 90% | – | 81% | CCCCCCCC(=O)OCCN(CCOC(=O)OC(CCCCCC)CCCC(=O)OCC(CCCC)CCCCCC)CCN(CC)CC (centres unmarked) [Example 108, 2-Butyloctyl 3-ethyl-12-hexyl-6-(2-(octanoyloxy)ethyl)-10-oxo-9,11-dioxa-3,6-diazahexadecan-16-oate] | 3%
74.2 nm | 66.8 nm | 85% | – | 75% | CCCCCCCCC(=O)OCCN(CCOC(=O)OC(CCCCCC)CCCCCCCCC(=O)OCCC(CCCCC)CCCCC)CCN(CC)CC (centres unmarked) [Example 126, 3-Pentyloctyl 3-ethyl-12-hexyl-6-(2-(nonanoyloxy)ethyl)-10-oxo-9,11-dioxa-3,6-diazahenicosan-21-oate] | 9%
